Measured values from patent US20080318943A1, “Compounds and Uses Thereof - 848” (ASTRAZENECA AB, priority 2007, published 2008).

Assays:
GABAA receptor α1β2γ2 = target: T1, GABAA receptor α1β2γ2 (Homo sapiens, UniProt P14867+P18507); experiment: Two-electrode voltage-clamp potentiation of GABA EC10 current in Xenopus oocytes, GABAA1; type: cell-based; settings: percentage potentiation of GABA EC10 current divided by that of diazepam
T1 construct: expressed in transfected cells; host or cells: Xenopus laevis oocytes injected with cRNA
T1 sequence (P14867 28-456): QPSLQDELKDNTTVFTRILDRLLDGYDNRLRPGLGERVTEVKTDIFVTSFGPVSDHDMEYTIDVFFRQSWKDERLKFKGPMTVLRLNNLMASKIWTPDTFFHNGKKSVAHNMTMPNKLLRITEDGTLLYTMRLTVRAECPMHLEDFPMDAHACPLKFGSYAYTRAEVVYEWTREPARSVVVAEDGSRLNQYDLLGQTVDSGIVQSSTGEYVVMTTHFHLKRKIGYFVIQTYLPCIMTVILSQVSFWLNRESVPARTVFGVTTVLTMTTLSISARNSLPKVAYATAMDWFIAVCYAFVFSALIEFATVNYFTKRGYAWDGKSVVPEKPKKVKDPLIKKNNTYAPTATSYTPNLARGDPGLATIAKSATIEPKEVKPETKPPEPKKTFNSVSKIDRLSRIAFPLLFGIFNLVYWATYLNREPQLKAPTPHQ
T1 sequence (P47870 25-512 partner limits assumed): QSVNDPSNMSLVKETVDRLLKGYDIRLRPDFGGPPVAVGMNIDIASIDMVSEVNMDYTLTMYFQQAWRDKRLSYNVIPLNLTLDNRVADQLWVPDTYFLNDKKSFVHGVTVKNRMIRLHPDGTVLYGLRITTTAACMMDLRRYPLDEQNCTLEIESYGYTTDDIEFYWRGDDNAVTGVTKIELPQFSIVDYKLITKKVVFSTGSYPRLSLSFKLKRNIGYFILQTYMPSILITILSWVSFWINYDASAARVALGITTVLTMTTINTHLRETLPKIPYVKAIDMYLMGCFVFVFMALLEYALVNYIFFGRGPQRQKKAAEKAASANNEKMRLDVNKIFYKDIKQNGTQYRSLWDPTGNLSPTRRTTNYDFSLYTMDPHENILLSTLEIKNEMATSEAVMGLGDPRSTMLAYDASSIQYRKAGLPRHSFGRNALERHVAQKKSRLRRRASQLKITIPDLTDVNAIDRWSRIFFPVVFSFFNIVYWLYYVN
T1 sequence (P18507 40-475): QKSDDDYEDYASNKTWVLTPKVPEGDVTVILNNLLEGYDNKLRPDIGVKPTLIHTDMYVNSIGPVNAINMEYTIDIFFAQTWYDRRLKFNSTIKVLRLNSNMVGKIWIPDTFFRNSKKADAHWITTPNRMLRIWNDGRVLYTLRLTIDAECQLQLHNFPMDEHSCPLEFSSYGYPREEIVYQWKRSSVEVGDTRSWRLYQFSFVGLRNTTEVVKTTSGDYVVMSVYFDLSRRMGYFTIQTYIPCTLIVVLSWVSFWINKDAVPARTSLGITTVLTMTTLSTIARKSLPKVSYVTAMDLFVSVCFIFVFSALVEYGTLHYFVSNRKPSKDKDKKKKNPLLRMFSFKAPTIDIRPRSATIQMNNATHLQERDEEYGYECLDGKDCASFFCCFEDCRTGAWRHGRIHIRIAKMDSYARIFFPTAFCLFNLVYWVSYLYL
Outline: (§1)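 Human GABAA receptors expressed in Xenopus oocytes by cRNA injection (α:β:γ molar ratio ~1:1:10 for α1β2γ2, 1:1:1 for α2β3γ2), recorded 2-10 days later by two-electrode voltage clamp at −60 mV in ND-96, pH 7.5. Modulator preapplied 30 s before GABA at per-oocyte EC10. Peak-current percent potentiation over GABA alone, normalised to diazepam.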

[1] = target: T2, GABAA2 receptors (α2, β3, γ2 receptor subunits transfected into Sf9 cells) (Homo sapiens, UniProt P18507+P47869); experiment: GABAA2 Binding Method ([3H]-Flunitrazepam displacement); settings: [3H]-Flunitrazepam ~2 nM, α2β3γ2 Sf9 membranes, 1 hr at 4° C.
T2 construct: host or cells: Sf9 cells (membranes)
T2 sequence (P47869 29-451): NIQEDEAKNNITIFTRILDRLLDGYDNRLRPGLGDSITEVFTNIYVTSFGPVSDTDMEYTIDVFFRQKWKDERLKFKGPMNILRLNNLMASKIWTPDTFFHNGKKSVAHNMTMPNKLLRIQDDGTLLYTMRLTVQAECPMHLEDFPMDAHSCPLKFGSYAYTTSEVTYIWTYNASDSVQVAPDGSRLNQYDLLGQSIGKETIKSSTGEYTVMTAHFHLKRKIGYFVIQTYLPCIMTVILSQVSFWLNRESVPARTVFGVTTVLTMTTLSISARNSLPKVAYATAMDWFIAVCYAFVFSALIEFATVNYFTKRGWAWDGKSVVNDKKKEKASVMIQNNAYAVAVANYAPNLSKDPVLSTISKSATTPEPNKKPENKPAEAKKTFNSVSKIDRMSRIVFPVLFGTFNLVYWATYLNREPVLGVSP
T2 sequence (P28472 26-473 partner): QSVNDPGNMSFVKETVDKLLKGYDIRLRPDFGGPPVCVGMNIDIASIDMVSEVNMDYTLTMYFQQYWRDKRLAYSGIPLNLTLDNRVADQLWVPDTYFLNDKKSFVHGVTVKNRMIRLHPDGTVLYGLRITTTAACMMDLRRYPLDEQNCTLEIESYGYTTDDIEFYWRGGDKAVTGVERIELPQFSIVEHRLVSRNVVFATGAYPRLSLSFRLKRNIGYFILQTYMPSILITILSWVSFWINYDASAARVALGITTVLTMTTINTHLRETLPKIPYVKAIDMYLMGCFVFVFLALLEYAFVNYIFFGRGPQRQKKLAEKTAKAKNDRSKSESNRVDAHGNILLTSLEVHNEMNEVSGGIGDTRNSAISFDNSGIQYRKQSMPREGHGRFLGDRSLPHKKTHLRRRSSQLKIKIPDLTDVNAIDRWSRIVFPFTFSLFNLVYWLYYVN
T2 sequence (P18507 40-475): as the sequence (P18507 40-475) above
Outline: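 Displacement of [3H]-flunitrazepam (~2 nM in assay) from recombinant human α2β3γ2 receptors in Sf9 membranes; 1 h incubation at 4 °C, harvest by filtration. Values reported as percent of control, IC50 and Ki.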

GABAA receptor α2β3γ2 = target: T3, GABAA receptor α2β3γ2 (Homo sapiens, UniProt P18507+P47869); experiment: Two-electrode voltage-clamp potentiation of GABA EC10 current in Xenopus oocytes, GABAA2; type: cell-based; settings: percentage potentiation of GABA EC10 current divided by that of diazepam
T3 construct: expressed in transfected cells; host or cells: Xenopus laevis oocytes injected with cRNA
T3 sequence (P47869 29-451): as the sequence (P47869 29-451) above
T3 sequence (P28472 26-473 partner): as the sequence (P28472 26-473 partner) above
T3 sequence (P18507 40-475): as the sequence (P18507 40-475) above
Outline: as §1

Relative Potentiation for GABAA1 (GABAA receptor α1β2γ2) | Ki [1] [nM] | Relative Potentiation for GABAA2 (GABAA receptor α2β3γ2) | Compound
0.2 | 60.8 | 0.2 | CCCN1Cc2nc3c(-c4ccc(F)cc4OC)cccc3c(N)c2C1=O [9-amino-5-(4-fluoro-2-methoxyphenyl)-2-propyl-2,3-dihydro-1H-pyrrolo[3,4-b]quinolin-1-one]
0.09 | 25.5 | 0.18 | CCN1Cc2nc3c(-c4ccc(F)c(OC)c4)cccc3c(N)c2C1=O [9-Amino-2-ethyl-5-(4-fluoro-3-methoxyphenyl)-2,3-dihydropyrrolo[3,4-b]quinolin-1-one]
0.07 | 21.4 | 0.19 | CCN1Cc2nc3c(-c4ccc(OC)c(OC)c4)cccc3c(N)c2C1=O [Example 29, 9-Amino-2-ethyl-5-(3,4-dimethoxyphenyl)-2,3-dihydropyrrolo[3,4-b]quinolin-1-one]
0.13 | 2.39 | 0.31 | Cc1nc(F)ccc1-c1cccc2c(N)c3c(nc12)CN(C1CCC1)C3=O [9-Amino-2-cyclobutyl-5-(6-fluoro-2-methylpyridin-3-yl)-2,3-dihydropyrrolo[3,4-b]quinolin-1-one]
0.08 | 23.4 | 0.14 | CCN1Cc2nc3c(-c4cnccc4C)cccc3c(N)c2C1=O [9-Amino-2-ethyl-5-(4-methylpyridin-3-yl)-2,3-dihydropyrrolo[3,4-b]quinolin-1-one]
0.22 | 15.5 | 0.37 | COc1ccc(C)cc1-c1cccc2c(N)c3c(nc12)CN(Cc1ccc2c(c1)OCO2)C3=O [Example 14, 9-Amino-2-benzo[1,3]dioxol-5-ylmethyl-5-(2-methoxy-5-methylphenyl)-2,3-dihydropyrrolo[3,4-b]quinolin-1-one]
−0.02 | 6.2 | 0.21 | N#Cc1ccc(F)cc1-c1cccc2c(N)c3c(nc12)CN(C1CCC1)C3=O [2-(9-Amino-2-cyclobutyl-1-oxo-2,3-dihydro-1H-pyrrolo[3,4-b]quinolin-5-yl)-4-fluorobenzonitrile]
0.085 | 1.29 | 0.51 | COc1ncccc1-c1cccc2c(N)c3c(nc12)CN([C@H]1C[C@@H](C)C1)C3=O
0.083 | 0.631 | 0.52 | COc1ncncc1-c1cccc2c(N)c3c(nc12)CN(C1CCC1)C3=O [9-Amino-2-cyclobutyl-5-(4-methoxy-pyrimidin-5-yl)-2,3-dihydropyrrolo[3,4-b]quinolin-1-one]
−0.03 | 2.17 | 0.14 | Nc1c2c(nc3c(-c4nccnc4F)cccc13)CN(C1CCC1)C2=O [9-Amino-2-cyclobutyl-5-(3-fluoropyrazin-2-yl)-2,3-dihydropyrrolo[3,4-b]quinolin-1-one]
−0.02 | 8.14 | 0.088 | COc1cccc(F)c1-c1c(F)ccc2c(N)c3c(nc12)CN(C)C3=O [9-Amino-6-fluoro-5-(2-fluoro-6-methoxyphenyl)-2-methyl-2,3-dihydropyrrolo[3,4-b]quinolin-1-one]
0.066 | 15.3 | 0.36 | COc1cc(-c2cccc3c(N)c4c(nc23)CN(C2CCC2)C4=O)c(C#N)cn1 [Example 96, 4-(9-Amino-2-cyclobutyl-1-oxo-2,3-dihydro-1H-pyrrolo[3,4-b]quinolin-5-yl)-6-methoxyniconitrile]
0.062 | 4.12 | 0.17 | COc1ccc(F)c(-c2c(F)ccc3c(N)c4c(nc23)CN(C2CC2)C4=O)c1F [9-Amino-2-cyclopropyl-5-(2,6-difluoro-3-methoxyphenyl)-6-fluoro-2,3-dihydropyrrolo[3,4-b]quinolin-1-one]
